These are literature values, as cited in patent US10945947B2, “Formulations for intravenous administration” (GLAXOSMITHKLINE INTELLECTUAL PROPERTY (NO.2) LIMITED, priority 2015, dated 2021).

For this data set the following is noted: at a higher pH, after oral administration.

Molecules are shown by their SMILES. Structures can show the parent of a compound that is named as a salt.

`Cc1c(F)cccc1NC(=O)Nc1ccc(Cl)c(S(=O)(=O)[C@H]2CCCNC2)c1O` [hydrobromide salt of danirixin]: the “solubility and dissolution profiles compared to the free base” value is “improved solubility and dissolution profiles”.
